Entries after “also recorded” stand apart in the source; their conditions may differ. Read-outs that look alike come from different tables or passages of the source.
What was measured:
[1] = tested on: A. baumannii; test: Minimum inhibitory concentration (MIC) assay, planktonic bacteria; assay type: cell-based; settings: Acinetobacter baumannii; aerobic; for 1:1 combinations MIC is the sum of both compounds
Method: (§1) For comparison to these biofilm tests with adjunctive metronidazole, the MIC was determined for each organism and each compound tested.

[2] = tested on: MRSA USA300; test: as above; assay type: cell-based; settings: Staphylococcus aureus, for 1:1 combinations MIC is the sum of both compounds
Method: as §1

[3] = tested on: P. aeruginosa; test: as above; assay type: cell-based; settings: Pseudomonas aeruginosa, for 1:1 combinations MIC is the sum of both compounds
Method: as §1

[4] = tested on: S. aureus ATCC 6538 biofilms; test: CDC biofilm reactor coupons, 24 h antibiotic treatment, bioburden by serial dilution plating; assay type: cell-based; settings: 24 h treatment, FIG. 1 and FIG. 7
Method: (§2) For determining the broad-spectrum utility of metronidazole, respective bacterial species were grown into stationary biofilms using a 2- or 3-day species-specific growth protocol in a CDC biofilm reactor on standard 0.5 in polycarbonate coupons. Each reactor holds up to 24 coupons/samples with adherent biofilms. Bacterial bioburden, represented as colony forming units (CFUs), from five reactor samples/coupons (n=5) were quantified by first dispersing the bacterial biofilms in 2 ml of PBS by standardized vortex-sonication technique and serial-dilution plating. Importantly, this quantification technique provides bioburden data with logarithmic sensitivity. […] The gray shaded regions represent standard deviations.
(§3) Three groups of 5 coupons/samples (n=5) were placed into 2 ml treatments either containing 0.5-1 mg/ml of gentamicin, metronidazole, or combinations thereof (in CAMHB) and incubated for 24 h at 37° C. Importantly, the total antibiotic concentration (mg/ml) was fixed for each sample to enable assessment of compound synergy.
After the 24 h treatment, the bacteria adhered to coupons were quantified by rinsing the samples very gently in excess PBS followed by vortexing and sonicating to disperse the biofilm in 2 ml PBS and subsequent serial-dilution plating. The bioburden of the adhered bacteria is represented by the blue bars in FIG. 1. […] Broth bioburden is represented by the red bars in FIG. 1.
Twelve hypoxia activated prodrugs from three categories were tested: nitroimidazoles (same class as metronidazole), nitrofurans, and anti-tumor agents.
To test each compound, the contents of an entire CDC-biofilm reactor (24 coupons/biofilm samples) were used (see FIG. 2 and FIG. 3). […] Using the methods described above, 4 reactor samples/coupons served as reactor controls. The remaining 20 samples/coupons were split into 4 treatment groups of 5 samples each (n=5).
For testing against S. aureus biofilms, the compounds were prepared at a concentration of 1 mM in CAMHB; coupons were treated in 2 ml for 24 h. Compounds were intentionally prepared in units of molarity rather than the more common weight/volume ratios of clinicians.
This choice was made for two reasons.
Two of the treatment groups were the same for each test: one in 1 mM nafcillin (a β-lactam antibiotic) and a second in 1 mM gentamicin. […] For comparison for most compounds 1 mM ranges from ˜0.15-0.5 mg/ml, 1 or 2 Log 2 dilutions below tests in FIG. 1. […] The other compounds were tested at the same concentrations.
Quantification of the post-treatment residual bioburden was performed by dispersing biofilm bacteria into the 2 ml treatments with its constituent bacteria by vortexing, and sonicating. […] The pelleted bacteria were resuspended and measured by the serial dilution plating technique. Thus, the values presented in FIGS. 2, 3 and 4 represent the cumulative change in bioburden from the surface-attached biofilms and bacteria in the treatments.

[5] = tested on: E. coli; test: Minimum inhibitory concentration (MIC) assay, planktonic bacteria; assay type: cell-based, Escherichia coli; settings: Escherichia coli, for 1:1 combinations MIC is the sum of both compounds
Method: as §1

[6] = tested on: S. epidermidis; test: as above; assay type: cell-based, Staphylococcus epidermidis; settings: Staphylococcus epidermidis, for 1:1 combinations MIC is the sum of both compounds
Method: as §3, §1

[7] = tested on: K. pneumoniae; test: as above; assay type: cell-based, Klebsiella pneumoniae; settings: for MIC: Klebsiella pneumoniae, for 1:1 combinations MIC is the sum of both compounds
Method: as §1

[8] = tested on: S. aureus biofilm; test: Live/dead imaging of metronidazole-treated biofilm; assay type: cell-based; settings: 0.5 mg/ml metronidazole, 24 h
From the text: FIGS. 9A-B show biofilm histochemical staining. […] Staining of pimonidazole adducts in pimonidazole-treated S. aureus biofilms is localized in the core; the deepest location (darker brown region indicated by arrow) adjacent to the collagen substrate. Regions where oxygen tension is insufficiently low for pimonidazole adduct formation is shown (arrow head; lighter brown region). […] Viable bacteria (green) resided on the biofilm surface, where oxygen and nutrients were readily available.
Next, a time-lapse confocal imaging paired with live-dead staining was used to observe the location of metronidazole-induced cell death.

[9] = tested on: biofilms of a range of Gram-negative and Gram-positive organisms; test: CDC biofilm reactor test of metronidazole combinations across species (FIG. 1); assay type: cell-based; settings: paired with gentamicin or levofloxacin (S. epidermidis); 0.5-1 mg/ml total, 24 h
Method: as §2, §3
After the 24 h treatment, the bacteria adhered to coupons were quantified by rinsing the samples very gently in excess PBS followed by vortexing and sonicating to disperse the biofilm in 2 ml PBS and subsequent serial-dilution plating. The bioburden of the adhered bacteria is represented by the blue bars in FIG. 1. […]

[10] = tested on: S. aureus; test: Minimum inhibitory concentration (MIC) assay, planktonic bacteria; assay type: cell-based; settings: for MIC: Staphylococcus aureus
From the text: Shortcomings of clinical antibiotic susceptibility assays. The antibiotic-susceptibility assays used to guide clinical treatment and prophylaxis rely on actively-dividing planktonic bacteria (Williams, D. L. & Costerton, J. W. J Biomed Mat Res B 100, 1163-1169 (2011)). Among the assays performed by clinical reference laboratories are the minimum inhibitory concentration (MIC), and disk diffusion (Kirby-Bauer) assays. The ubiquity of these assays is owed to the fact that they are high throughput, relatively quick to perform, repeatable, and have short turnaround times. They inform clinicians regarding which antibiotic are applicable for a given infection from a simple site swab, blood, or aspirate sample. […] Thus, when a compound, such as metronidazole performs poorly in an MIC assay, a physician would be thoroughly dissuaded from using it. Likewise, in drug-development, a high MIC value would exclude potentially useful anti-biofilm agents from candidate drug libraries. […] Using orthodox clinical methodology, there would be no basis to administer metronidazole in the treatment of a S. aureus-related infections, despite its exceptional efficacy against bacterial biofilms of the same isolates. The MIC assay fails to provide any information about susceptibility profiles of bacteria that reside in the biofilm phenotype.
as §1

[11] = tested on: S. aureus ATCC 6538 biofilms; test: Hypoxyprobe immunohistochemical staining of pimonidazole adducts in biofilms; assay type: cell-based; settings: 0.06 mg/ml pimonidazole, 5 h
From the text: Further, the Hypoxyprobe™ immunohistochemistry kit was used to identify regions of the biofilm that might be hypoxic, and to identify regions with nitro-reductase activity. At the core of the Hypoxyprobe™ kit is the use of the nitroimidazole pimonidazole; it is used to treat, usually animal tissues, but in this case bacterial tissues (biofilms) while in homeostasis prior to fixation, embedment, sectioning, and staining (see structures FIGS. 5E-F). The nitro group on pimonidazole, like that on metronidazole, is reductively activated in hypoxic mammalian tissues by reaction with catalytic nitro-reductase enzymes; it then forms indiscriminate adducts with inter-cellular thiol groups. In the presence of oxygen, the reduced nitro group in pimonidazole (and metronidazole) rapidly reacts with oxygen thereby cycling back to the parent compound. The Hypoxyprobe™ kit contains a primary antibody against these intercellular pimonidazole adducts. Successful immunohistochemical staining of pimonidazole adducts in the biofilm core indicates two important things. First, it would show nitro-reductase activity in the biofilm, and second it would be direct evidence for […] oxygen tension for a nitroimidazole prodrug radical to persist and react with critical cellular components. […]

[12] = anaerobic, read-out: Anaerobic MIC

MIC [1] [µg/mL] | MIC ([2]; aerobic, read-out: Aerobic MIC) [µg/mL] | MIC [2, 12] [µg/mL] | MIC ([3]; aerobic, read-out: Aerobic MIC) [µg/mL] | MIC [3, 12] [µg/mL] | MIC ([5]; aerobic, read-out: Aerobic MIC) [µg/mL] | MIC [5, 12] [µg/mL] | MIC ([6]; aerobic, read-out: Aerobic MIC) [µg/mL] | MIC [6, 12] [µg/mL] | MIC ([7]; aerobic, read-out: Aerobic MIC) [µg/mL] | MIC [7, 12] [µg/mL] | reduction in MIC, anaerobic versus aerobic ([7]; log-phase planktonic bacteria) | MIC ([10]; aerobic, for 1:1 combinations MIC is the sum of both compounds, read-out: Aerobic MIC) [µg/mL] | MIC ([10]; anaerobic, for 1:1 combinations MIC is the sum of both compounds, read-out: Anaerobic MIC) [µg/mL] | MIC ([10]; isolate used in biofilm tests, read-out: MIC against S. aureus) [µg/mL] | Structure (SMILES) | antibiofilm activity [4] | location of dead and viable bacteria by live/dead staining [8] | synergistic kill against biofilms [9] | effect against planktonic bacteria as indicated by the MIC ([10]; FIG. 7 legend) | location of pimonidazole adducts (nitro-reductase activity, hypoxia) [11]
> 2500 | 1250 | 1250 | > 2500 | > 2500 | 1250 | 156 | 312 | 625 | > 2500 | 1250 | two | 2500 | > 2500 | > 2500 | Cc1ncc([N+](=O)[O-])n1CCO [Metronidazole, metronidazole] | much greater antibiofilm activity compared to traditional antibiotics; also recorded: graded concentration-dependent effect against biofilms; also recorded: killed the otherwise difficult-to-kill persister cells embedded within the biofilm | an abundance of dead and dying bacteria in the biofilm core contrasted with viable bacteria on the biofilm surface; also recorded: Dead cells (red) resided deep within the biofilm core | strong synergistic kill | little effect against planktonic bacteria | –
– | – | – | – | – | – | – | – | – | – | – | – | – | – | – | O=[N+]([O-])c1nccn1CC(O)CN1CCCCC1 (centres unmarked) [pimonidazole] | – | – | – | – | adducts banded throughout the deepest parts of the biofilm core

Reference: patent publication US20250222066A1, “COMPOSITIONS AND METHODS OF TREATING, PREVENTING OR INHIBITING A FACULTATIVE ANAEROBE INFECTION” (UNIVERSITY OF UTAH RESEARCH FOUNDATION, priority 2022, published 2025)
